Data from patent publication US20130029970A1 (priority 2009, published 2013).

How the values were obtained:
[1] = target: T1, human CB2 (hCB2) (Homo sapiens, UniProt P34972); experiment: 35S GTPγS binding assay, hCB2 agonist; type: biochemical; conditions: GTPγS agonist, HEK-293 membranes; read-out: hCB2 EC50 (GTPyS ag)
T1 construct: (cDNA clone) CNR0200000
Method in brief: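 Membranes (5 μg) from cells transfected with hCB2 cDNA in pcDNA3.1+ incubated with SPA beads, 0.1 nM [35S]GTPγS and 20 uM GDP in 50 mM HEPES pH 7.4, 100 mM NaCl, 5 mM MgCl2, 0.001% saponin, ± test compound. Incubation 90 min at room temperature; bound label read by scintillation counting.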

[2] = target: T2, human CB1 (hCB1) (Homo sapiens, UniProt P21554); experiment: 35S GTPγS binding assay, hCB1 agonist; type: biochemical; conditions: GTPγS agonist, HEK-293 membranes; read-out: hCB1 EC50 (GTPyS ag)
T2 construct: (cDNA clone) CNR01L000

[3] = target: T3, human CB1 receptors (Homo sapiens, UniProt P21554); experiment: cAMP assay in HEK-293 cells, hCB1 agonist; type: cell-based; conditions: inhibition of forskolin-stimulated cAMP, HEK-293 cells; for EC50: read-out: hCB1 EC50 (cAMP ag)
T3 construct: (cDNA clone) CNR01L000
Method in brief: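 Stable hCB1 HEK-293 cells suspended in HBSS with 10 mM HEPES and 0.1% fatty acid-free BSA, incubated 30 min at 37° C. with compound plus forskolin (90 uM in the 3× compound solution). Lysed cAMP measured by enzyme-fragment kit; EC50 = 50% inhibition of forskolin-stimulated cAMP (forskolin maximum = 100%), sigmoidal fit.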

T1 sequence (P34972 whole entry): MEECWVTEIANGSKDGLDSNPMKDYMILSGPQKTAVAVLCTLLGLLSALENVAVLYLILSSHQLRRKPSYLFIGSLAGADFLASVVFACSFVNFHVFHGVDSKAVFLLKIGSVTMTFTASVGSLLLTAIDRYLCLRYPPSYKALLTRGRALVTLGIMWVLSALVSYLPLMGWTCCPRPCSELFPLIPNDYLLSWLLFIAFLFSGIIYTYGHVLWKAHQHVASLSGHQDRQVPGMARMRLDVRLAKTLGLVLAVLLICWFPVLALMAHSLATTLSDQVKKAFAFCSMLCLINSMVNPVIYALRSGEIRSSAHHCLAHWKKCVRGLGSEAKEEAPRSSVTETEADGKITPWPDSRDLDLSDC
T3 sequence (P21554 whole entry): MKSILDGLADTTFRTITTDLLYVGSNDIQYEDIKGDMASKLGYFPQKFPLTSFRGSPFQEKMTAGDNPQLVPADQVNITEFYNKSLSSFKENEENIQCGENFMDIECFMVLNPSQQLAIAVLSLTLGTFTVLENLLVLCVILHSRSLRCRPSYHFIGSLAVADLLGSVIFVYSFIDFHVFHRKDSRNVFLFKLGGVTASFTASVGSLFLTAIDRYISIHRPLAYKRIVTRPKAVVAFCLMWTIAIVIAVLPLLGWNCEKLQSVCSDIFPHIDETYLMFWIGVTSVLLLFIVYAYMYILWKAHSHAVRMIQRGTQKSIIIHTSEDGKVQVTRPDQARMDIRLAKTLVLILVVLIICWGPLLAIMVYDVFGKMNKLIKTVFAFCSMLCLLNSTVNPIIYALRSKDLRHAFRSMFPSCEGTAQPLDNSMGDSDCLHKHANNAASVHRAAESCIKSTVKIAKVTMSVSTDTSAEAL
T2 sequence (P21554 whole entry): as above

Row | Compound | EC50 [1] [nM] | EC50 [2] [nM] | hCB1 EC50 (cAMP ag, nM) [3] | EC50 [3] [nM]
1 | Cc1cc2cc(C(=O)c3cccc(Cl)c3Cl)sc2n1CCc1ccccc1 [Compound 30, (2,3-Dichlorophenyl)(5-methyl-6-phenethyl-6H-thieno[2,3-b]pyrrol-2-yl)methanone] | < 100 | 100 to 1000 | NS (NS means “Not Significant,” which means less than 30% agonist activity when compared to the positive control.) | –
2 | Cc1cc2cc(C(=O)c3cccc(Cl)c3Cl)sc2n1CCN1CCN(C)CC1 [Compound 33, (2,3-Dichlorophenyl)(5-methyl-6-(2-(4-methylpiperazin-1-yl)ethyl)-6H-thieno[2,3-b]pyrrol-2-yl)methanone] | – | < 100 | NS (NS means “Not Significant,” which means less than 30% agonist activity when compared to the positive control.) | –
3 | CCS(=O)(=O)n1c(C)cc2cc(C(=O)c3cccnc3Cl)sc21 [Compound 43, (2-Chloropyridin-3-yl)(6-(ethylsulfonyl)-5-methyl-6H-thieno[2,3-b]pyrrol-2-yl)methanone] | < 100 | – | NS (NS means “Not Significant,” which means less than 30% agonist activity when compared to the positive control.) | –
4 | COc1ccc(C(=O)c2cc3cc(C)n(CCCNS(C)(=O)=O)c3s2)cc1 [Compound 44, N-(3-(2-(4-methoxybenzoyl)-5-methyl-6H-thieno[2,3-b]pyrrol-6-yl)propyl)methanesulfonamide] | < 100 | – | NS (NS means “Not Significant,” which means less than 30% agonist activity when compared to the positive control.) | –
5 | COc1ncccc1C(=O)c1cc2cc(C)n(CCN3CCOCC3)c2s1 [Compound 47, (2-Methoxypyridin-3-yl)(5-methyl-6-(2-morpholinoethyl)-6H-thieno[2,3-b]pyrrol-2-yl)methanone] | 100 to 1000 | – | NS (NS means “Not Significant,” which means less than 30% agonist activity when compared to the positive control.) | –
6 | COc1ccc(C(=O)c2cc3cc(C)n(S(=O)(=O)N(C)C)c3s2)cc1 [Compound 51, 2-(4-Methoxybenzoyl)-N,N,5-trimethyl-6H-thieno[2,3-b]pyrrole-6-sulfonamide] | < 100 | – | NS (NS means “Not Significant,” which means less than 30% agonist activity when compared to the positive control.) | –
7 | Cc1cc2cc(C(=O)c3ccc(F)cc3)sc2n1CCN1CCOCC1 [Compound 54, (4-Fluorophenyl)(5-methyl-6-(2-morpholinoethyl)-6H-thieno[2,3-b]pyrrol-2-yl)methanone] | < 100 | – | NS (NS means “Not Significant,” which means less than 30% agonist activity when compared to the positive control.) | –
8 | CCS(=O)(=O)n1c(C)cc2cc(C(=O)c3ccc(OC)cc3)sc21 [Compound 56, (6-(Ethylsulfonyl)-5-methyl-6H-thieno[2,3-b]pyrrol-2-yl)(4-methoxyphenyl)methanone] | < 100 | – | NS (NS means “Not Significant,” which means less than 30% agonist activity when compared to the positive control.) | –
9 | COc1ccc(C(=O)c2cc3cc(C)n(CCN4CCOCC4)c3s2)cn1 [Compound 58, (6-Methoxypyridin-3-yl)(5-methyl-6-(2-morpholinoethyl)-6H-thieno[2,3-b]pyrrol-2-yl)methanone] | < 100 | – | NS (NS means “Not Significant,” which means less than 30% agonist activity when compared to the positive control.) | –
10 | Cc1cc2cc(C(=O)c3ccc(C(F)(F)F)cc3)sc2n1CCN1CCOCC1 [Compound 60, (5-Methyl-6-(2-morpholinoethyl)-6H-thieno[2,3-b]pyrrol-2-yl)(4-(trifluoromethyl)phenyl)methanone] | 1000 to 10000 | – | NS (NS means “Not Significant,” which means less than 30% agonist activity when compared to the positive control.) | –
11 | COc1ccc(C(=O)c2cc3cc(C)n(CCN4CCOCC4)c3s2)c(Cl)c1 [Compound 70, (2-Chloro-4-methoxyphenyl)(5-methyl-6-(2-morpholinoethyl)-6H-thieno[2,3-b]pyrrol-2-yl)methanone] | < 100 | – | – | 100 to 1000
12 | COc1ccc(C(=O)c2cc3cc(C)n(Cc4ccccc4)c3s2)cc1 [Compound 84, (6-Benzyl-5-methyl-6H-thieno[2,3-b]pyrrol-2-yl)(4-methoxyphenyl)methanone] | 100 to 1000 | – | NS (NS means “Not Significant,” which means less than 30% agonist activity when compared to the positive control.) | –
13 | COc1ccc(C(=O)c2cc3cc(C)n(CCCCl)c3s2)c(Cl)c1 [Compound 85, (2-Chloro-4-methoxyphenyl)(6-(3-chloropropyl)-5-methyl-6H-thieno[2,3-b]pyrrol-2-yl)methanone] | < 100 | – | – | 1000 to 10000
14 | COc1ccc(C(=O)c2cc3cc(C)n(CCCNS(C)(=O)=O)c3s2)c(F)c1 [Compound 87, N-(3-(2-(2-Fluoro-4-methoxybenzoyl)-5-methyl-6H-thieno[2,3-b]pyrrol-6-yl)propyl)methanesulfonamide] | < 100 | – | NS (NS means “Not Significant,” which means less than 30% agonist activity when compared to the positive control.) | –
15 | COc1ccc(C(=O)c2cc3cc(C)n(CCCNS(C)(=O)=O)c3s2)c(Cl)c1 [Compound 91, N-(3-(2-(2-Chloro-4-methoxybenzoyl)-5-methyl-6H-thieno[2,3-b]pyrrol-6-yl)propyl)methanesulfonamide] | < 100 | – | NS (NS means “Not Significant,” which means less than 30% agonist activity when compared to the positive control.) | –
16 | Cc1ccc(C(=N)c2cc3cc(C)n(CCN4CCOCC4)c3s2)cc1 [Compound 121, (5-methyl-6-(2-morpholinoethyl)-6H-thieno[2,3-b]pyrrol-2-yl)(p-tolyl)methanimine] | < 100 | – | NS (NS means “Not Significant,” which means less than 30% agonist activity when compared to the positive control.) | –
17 | COc1ccc(C(=O)c2cc3cc(C)n(CCN4CCOCC4)c3s2)cc1F [Compound 128, (3-fluoro-4-methoxyphenyl)(5-methyl-6-(2-morpholinoethyl)-6H-thieno[2,3-b]pyrrol-2-yl)methanone] | < 100 | – | NS (NS means “Not Significant,” which means less than 30% agonist activity when compared to the positive control.) | –
18 | Cc1cc2cc(C(=O)c3ccc(C#N)cc3)sc2n1CCN1CCOCC1 [Compound 129, 4-(5-methyl-6-(2-morpholinoethyl)-6H-thieno[2,3-b]pyrrole-2-carbonyl)benzonitrile] | < 100 | – | NS (NS means “Not Significant,” which means less than 30% agonist activity when compared to the positive control.) | –
19 | COc1cc(F)ccc1C(=O)c1cc2cc(C)n(CCN3CCOCC3)c2s1 [Compound 133, (4-fluoro-2-methoxyphenyl)(5-methyl-6-(2-morpholinoethyl)-6H-thieno[2,3-b]pyrrol-2-yl)methanone] | < 100 | – | – | 100 to 1000
20 | Cc1cc2cc(C(=O)c3ccc(F)cc3F)sc2n1CCN1CCOCC1 [Compound 135, (2,4-difluorophenyl)(5-methyl-6-(2-morpholinoethyl)-6H-thieno[2,3-b]pyrrol-2-yl)methanone] | 100 to 1000 | – | NS (NS means “Not Significant,” which means less than 30% agonist activity when compared to the positive control.) | –
21 | COc1ccc(C(=O)c2cc3cc(C)n(CCN4CCOCC4)c3s2)c(C)n1 [Compound 136, (6-methoxy-2-methylpyridin-3-yl)(5-methyl-6-(2-morpholinoethyl)-6H-thieno[2,3-b]pyrrol-2-yl)methanone] | < 100 | – | NS (NS means “Not Significant,” which means less than 30% agonist activity when compared to the positive control.) | –
22 | COc1ccc(C(O)(c2cc3cc(C)n(CCN4CCOCC4)c3s2)C(F)(F)F)cc1 (stereo not shown) [Compound 138, 2,2,2-trifluoro-1-(4-methoxyphenyl)-1-(5-methyl-6-(2-morpholinoethyl)-6H-thieno[2,3-b]pyrrol-2-yl)ethanol] | < 100 | – | NS (NS means “Not Significant,” which means less than 30% agonist activity when compared to the positive control.) | –
23 | COc1ccc(C(c2cc3cc(C)n(CCN4CCOCC4)c3s2)C(F)(F)F)cc1 (stereo not shown) [Compound 141, 4-(2-(5-methyl-2-(2,2,2-trifluoro-1-(4-methoxyphenyl)ethyl)-6H-thieno[2,3-b]pyrrol-6-yl)ethyl)morpholine] | 100 to 1000 | – | NS (NS means “Not Significant,” which means less than 30% agonist activity when compared to the positive control.) | –
24 | COc1ccc(C(=O)c2cc3cc(C)n(CCN4CCC(OC)C4)c3s2)cn1 (stereo not shown) [Compound 147, (6-methoxypyridin-3-yl)(6-(2-(3-methoxypyrrolidin-1-yl)ethyl)-5-methyl-6H-thieno[2,3-b]pyrrol-2-yl)methanone] | 100 to 1000 | – | NS (NS means “Not Significant,” which means less than 30% agonist activity when compared to the positive control.) | –
